Measurements as given in ChEMBL document CHEMBL1201862, “PubChem BioAssay data set” (2004).
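In this assay, cells in 96-well plates receive the compound at five concentrations for 48 hours. Endpoints are linearly interpolated between the surrounding concentrations. Here, GI50 denotes the concentration required for 50% inhibition of growth.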 Calls of active or inactive are those of the source. No stated cut-off is given here; in the data, active = GI50 up to about 1.1 µM and inactive = higher.

Key:
Test in all cases: NCI tumour cell line growth inhibition, 48 h
786-0 = test system: 786-0
A498 = test system: A498
A549 = test system: A549
ACHN = test system: ACHN
CAKI-1 = test system: CAKI-1
CCRF-CEM = test system: CCRF-CEM
COLO 205 = test system: COLO 205
DLD-1 = test system: DLD-1
DMS-114 = test system: DMS-114
DMS-273 = test system: DMS-273
EKVX = test system: EKVX
HCC 2998 = test system: HCC 2998
HCT-116 = test system: HCT-116
HL-60 = test system: HL-60
HOP-18 = test system: HOP-18
HOP-62 = test system: HOP-62
HOP-92 = test system: HOP-92
HT-29 = test system: HT-29
IGROV-1 = test system: IGROV-1
K562 = test system: K562
KM-20L2 = test system: KM-20L2
KM12 = test system: KM12
LOX IMVI = test system: LOX IMVI
LXFL 529 = test system: LXFL 529
M14 = test system: M14
M19-MEL = test system: M19-MEL
MOLT-4 = test system: MOLT-4
Malme-3M = test system: Malme-3M
NCI-H226 = test system: NCI-H226
NCI-H23 = test system: NCI-H23
NCI-H460 = test system: NCI-H460
NCI-H522 = test system: NCI-H522
OVCAR-3 = test system: OVCAR-3
OVCAR-4 = test system: OVCAR-4
OVCAR-5 = test system: OVCAR-5
OVCAR-8 = test system: OVCAR-8
RPMI-8226 = test system: RPMI-8226
RXF 393 = test system: RXF 393
RXF 631 = test system: RXF 631
SF-268 = test system: SF-268
SF-295 = test system: SF-295
SF-539 = test system: SF-539
SK-MEL-28 = test system: SK-MEL-28
SK-MEL-2 = test system: SK-MEL-2
SK-MEL-5 = test system: SK-MEL-5
SK-OV-3 = test system: SK-OV-3
SN12C = test system: SN12C
SNB-19 = test system: SNB-19
SNB-75 = test system: SNB-75
SNB-78 = test system: SNB-78
SR = test system: SR
SW-620 = test system: SW-620
TK-10 = test system: TK-10
U-251 = test system: U-251
UACC-257 = test system: UACC-257
UACC-62 = test system: UACC-62
UO-31 = test system: UO-31
XF498 = test system: XF498

Measured: GI50

N#CC1(C#N)C(c2ccccc2)C=CC12OCCCO2 (stereo not drawn)
inactive: 786-0 31.9 µM | A498 48.6 µM | A549 88.9 µM | ACHN 42.7 µM | CAKI-1 24.5 µM | CCRF-CEM 26.9 µM | COLO 205 26.2 µM | DLD-1 26 µM | DMS-114 24.3 µM | DMS-273 32.3 µM | EKVX 59.3 µM | HCC 2998 84.9 µM | HCT-116 24.9 µM | HL-60 23.4 µM | HOP-18 > 100 µM | HOP-62 > 100 µM | HOP-92 30.5 µM | HT-29 47.5 µM | IGROV-1 60.5 µM | K562 30.6 µM | KM-20L2 68.5 µM | KM12 38.1 µM | LOX IMVI 40.4 µM | LXFL 529 28.5 µM | M14 29.7 µM | M19-MEL 40.3 µM | MOLT-4 26.7 µM | Malme-3M 42.2 µM | NCI-H226 78.7 µM | NCI-H23 31.2 µM | NCI-H460 42 µM | NCI-H522 16.3 µM | OVCAR-3 33 µM | OVCAR-4 59.4 µM | OVCAR-5 51.5 µM | OVCAR-8 17.7 µM | RPMI-8226 27.7 µM | RXF 393 17 µM | RXF 631 81.3 µM | SF-268 28.4 µM | SF-295 76 µM | SF-539 21.6 µM | SK-MEL-28 27 µM | SK-MEL-2 72.4 µM | SK-MEL-5 53.8 µM | SK-OV-3 > 100 µM | SN12C 32.6 µM | SNB-19 > 100 µM | SNB-75 42.9 µM | SNB-78 31.6 µM | SR 27 µM | SW-620 31.1 µM | TK-10 48.9 µM | U-251 45.2 µM | UACC-257 27.4 µM | UACC-62 33.3 µM | UO-31 97.3 µM | XF498 49.4 µM
